In article PMC12543283, “TastepepAI: An artificial intelligence platform for taste peptide de novo design” (PLOS Computational Biology, 2025):
Ends that are not written are not given here.

Assays:
[1] = Electronic tongue analysis (Taste-Sensing System SA 402B); parameters: unit not given here; details: reference solution 30 mM KCl + 0.3 mM tartaric acid as baseline, first measurement excluded; for Umami: sensor AAE; for Umami / Bitter / Sweet: detection threshold 0, room temperature; for Umami / Bitter / Sour / Salty: four replicates; for Sour: detection threshold -13, room temperature; for Salty: detection threshold -6, room temperature; for Sweet: measured five times
How it was run: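 Room-temperature electronic-tongue readings with five taste probes, calibrated against a reference of 30 mM KCl and 0.3 mM tartaric acid. Samples at 0.1 mg/mL and 1.0 mg/mL were measured four times, sweetness five times, and the first run was dropped. Detection cut-offs were sour −13, salty −6, others 0.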

[2] = tested on: human bronchial epithelial cells (BEAS-2B)
[3] = tested on: human embryonic kidney cells (HEK293T)
[4] = tested on: human pancreatic ductal epithelial cells (HPNE)
[5] = tested on: human umbilical vein endothelial cells (HUVEC)
Procedure: The cytotoxicity of 73 synthetic peptides was evaluated using four human cell lines: human pancreatic ductal epithelial cells (HPNE), human embryonic kidney cells (HEK293T), human umbilical vein endothelial cells (HUVEC), and human bronchial epithelial cells (BEAS-2B). When cell density reached 70% confluence, the complete culture medium was replaced with serum-free maintenance medium, and peptides were added at a final concentration of 100 μM for 36 h. Control groups received only serum-free maintenance medium without peptides. Cell proliferation was assessed using the CCK-8 assay kit (Solarbio, CA1210) according to the manufacturer’s instructions.

Substance	Umami ([1]; peptide 0.1 mg/mL)	Umami ([1]; peptide 1 mg/mL)	Bitter ([1]; sensor C00, peptide 0.1 mg/mL)	Bitter ([1]; sensor C00, peptide 1 mg/mL)	Sour ([1]; sensor CA0, peptide 0.1 mg/mL)	Sour ([1]; sensor CA0, peptide 1 mg/mL)	Salty ([1]; sensor CT0, peptide 0.1 mg/mL)	Salty ([1]; sensor CT0, peptide 1 mg/mL)	Sweet ([1]; sensor GL1, peptide 0.1 mg/mL)	Sweet ([1]; sensor GL1, peptide 1 mg/mL)	Average cell viability, BEAS-2B [2]	Cell viability, BEAS-2B, Data1 [2]	Cell viability, BEAS-2B, Data2 [2]	Cell viability, BEAS-2B, Data3 [2]	Average cell viability, HEK293T [3]	Cell viability, HEK293T, Data1 [3]	Cell viability, HEK293T, Data2 [3]	Cell viability, HEK293T, Data3 [3]	Average cell viability, HPNE [4]	Cell viability, HPNE, Data1 [4]	also measured
TIDDELR [TaPep26]	1.71	-4.35	7.26	3.16	-3.53	10.93	-21.44	8.38	5.51	-3.99	102.16	95.61	106.68	104.19	99.46	96.81	98.23	103.34	94.58	84.76	Cell viability, HPNE, Data2 [4]: 94.94; Cell viability, HPNE, Data3 [4]: 104.03; Average cell viability, HUVEC [5]: 104.87; Cell viability, HUVEC, Data1 [5]: 103.54; Cell viability, HUVEC, Data2 [5]: 102.74; Cell viability, HUVEC, Data3 [5]: 108.33
EQGEQN [TaPep15]	3.17	-3.63	6.27	4.11	-7.15	8.97	-23.91	2.97	9.72	-3.92	103.09	105.68	95.51	108.08	92.65	98.80	86.59	92.56	101.30	84.06	Cell viability, HPNE, Data2 [4]: 112.61; Cell viability, HPNE, Data3 [4]: 107.22; Average cell viability, HUVEC [5]: 100.56; Cell viability, HUVEC, Data1 [5]: 103.30; Cell viability, HUVEC, Data2 [5]: 104.26; Cell viability, HUVEC, Data3 [5]: 94.12
AQSSLS [TaPep40]	2.37	-3.91	7.48	3.31	-5.48	10.99	-19.59	10.09	10.64	-5.29	101.16	116.45	94.02	93.02	100.57	103.15	101.26	97.29	106.99	100.53	Cell viability, HPNE, Data2 [4]: 109.02; Cell viability, HPNE, Data3 [4]: 111.41; Average cell viability, HUVEC [5]: 101.30; Cell viability, HUVEC, Data1 [5]: 102.66; Cell viability, HUVEC, Data2 [5]: 110.88; Cell viability, HUVEC, Data3 [5]: 90.37
HIDELDE [TaPep22]	2.56	-3.68	6.91	3.37	-5.65	9.43	-22.87	7.21	7.18	-4.86	111.67	106.78	113.26	114.96	98.23	106.09	94.35	94.26	95.67	103.83	Cell viability, HPNE, Data2 [4]: 84.66; Cell viability, HPNE, Data3 [4]: 98.54; Average cell viability, HUVEC [5]: 101.94; Cell viability, HUVEC, Data1 [5]: 90.69; Cell viability, HUVEC, Data2 [5]: 106.97; Cell viability, HUVEC, Data3 [5]: 108.17
EEVPITD [TaPep46]	1.60	-4.41	7.55	4.18	-3.21	10.78	-21.33	4.55	6.32	-3.59	111.37	117.25	103.29	113.56	100.85	99.94	100.60	102.02	104.39	107.62	Cell viability, HPNE, Data2 [4]: 107.82; Cell viability, HPNE, Data3 [4]: 97.74; Average cell viability, HUVEC [5]: 101.12; Cell viability, HUVEC, Data1 [5]: 105.61; Cell viability, HUVEC, Data2 [5]: 97.55; Cell viability, HUVEC, Data3 [5]: 100.19
DFKEELPK [TaPep42]	0.30	-6.40	7.41	2.96	-0.03	16.30	-15.26	15.72	3.04	-6.66	106.12	95.21	103.99	119.14	100.35	101.45	95.30	104.29	106.29	109.92	Cell viability, HPNE, Data2 [4]: 101.63; Cell viability, HPNE, Data3 [4]: 107.32; Average cell viability, HUVEC [5]: 100.96; Cell viability, HUVEC, Data1 [5]: 109.77; Cell viability, HUVEC, Data2 [5]: 97.95; Cell viability, HUVEC, Data3 [5]: 95.16
